Structures can show the parent of a compound that is named as a salt.
Tests used:
[1] = biological target: T1, ATP-binding cassette sub-family C member 4 (Homo sapiens, UniProt O15439); assay: Inhibition of human MRP4 overexpressed in Sf9 cell membrane vesicles assessed as uptake of [3H]-estradiol-17beta-D-glucuronide in presence of ATP and GSH measured after 20 mins by membrane vesicle transport assay; type: ADME, cell-based
T1 sequence (O15439 whole entry): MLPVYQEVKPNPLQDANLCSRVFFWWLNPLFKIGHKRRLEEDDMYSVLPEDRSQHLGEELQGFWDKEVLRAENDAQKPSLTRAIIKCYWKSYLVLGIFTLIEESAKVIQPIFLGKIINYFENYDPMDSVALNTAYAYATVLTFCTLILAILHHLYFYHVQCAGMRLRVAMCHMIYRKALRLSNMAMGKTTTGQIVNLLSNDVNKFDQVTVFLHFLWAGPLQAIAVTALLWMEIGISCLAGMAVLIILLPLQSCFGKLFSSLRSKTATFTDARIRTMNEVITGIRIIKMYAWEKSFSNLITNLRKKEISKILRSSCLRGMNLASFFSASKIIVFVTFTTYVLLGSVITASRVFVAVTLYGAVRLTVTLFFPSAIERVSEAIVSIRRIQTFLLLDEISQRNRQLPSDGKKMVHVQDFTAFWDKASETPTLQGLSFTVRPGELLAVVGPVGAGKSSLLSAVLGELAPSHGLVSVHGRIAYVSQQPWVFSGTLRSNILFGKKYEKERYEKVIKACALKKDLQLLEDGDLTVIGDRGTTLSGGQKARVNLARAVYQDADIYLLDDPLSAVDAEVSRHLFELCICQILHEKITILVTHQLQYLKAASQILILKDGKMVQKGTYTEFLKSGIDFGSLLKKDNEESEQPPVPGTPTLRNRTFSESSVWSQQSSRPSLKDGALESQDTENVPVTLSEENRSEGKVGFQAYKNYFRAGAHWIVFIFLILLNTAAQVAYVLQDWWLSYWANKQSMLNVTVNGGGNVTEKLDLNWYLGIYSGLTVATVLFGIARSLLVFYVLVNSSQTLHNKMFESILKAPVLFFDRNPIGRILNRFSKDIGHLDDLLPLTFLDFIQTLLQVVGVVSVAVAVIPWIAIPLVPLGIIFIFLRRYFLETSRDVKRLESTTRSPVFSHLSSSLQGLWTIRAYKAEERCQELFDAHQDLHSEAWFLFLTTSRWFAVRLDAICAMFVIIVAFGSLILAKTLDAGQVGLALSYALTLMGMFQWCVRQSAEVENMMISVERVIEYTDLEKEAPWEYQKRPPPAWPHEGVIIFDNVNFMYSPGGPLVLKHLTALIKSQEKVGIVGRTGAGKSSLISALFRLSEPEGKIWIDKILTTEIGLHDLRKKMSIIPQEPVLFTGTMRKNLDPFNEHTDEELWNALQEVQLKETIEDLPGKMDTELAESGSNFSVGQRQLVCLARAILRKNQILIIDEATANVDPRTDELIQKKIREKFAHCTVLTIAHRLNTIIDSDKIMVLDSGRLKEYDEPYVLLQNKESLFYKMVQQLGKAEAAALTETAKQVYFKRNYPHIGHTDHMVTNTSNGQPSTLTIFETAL

Bile salt export pump = Bile salt export pump (Homo sapiens, UniProt O95342); assay: Inhibition of human BSEP overexpressed in Sf9 cell membrane vesicles assessed as uptake of [3H]-taurocholate in presence of ATP measured after 15 to 20 mins by membrane vesicle transport assay; type: ADME, cell-based
[2] = biological target: ATP-binding cassette sub-family C member 3 (Homo sapiens, UniProt O15438); assay: Inhibition of human MRP3 overexpressed in Sf9 insect cell membrane vesicles assessed as uptake of [3H]-estradiol-17beta-D-glucuronide in presence of ATP and GSH measured after 10 mins by membrane vesicle transport assay; type: ADME, cell-based
[3] = biological target: ATP-binding cassette sub-family C member 2 (Homo sapiens, UniProt Q92887); assay: Inhibition of human MRP2 overexpressed in Sf9 cell membrane vesicles assessed as uptake of [3H]-estradiol-17beta-D-glucuronide in presence of ATP and GSH measured after 20 mins by membrane vesicle transport assay
Sequence of ATP-binding cassette sub-family C member 2 (Q92887 whole entry): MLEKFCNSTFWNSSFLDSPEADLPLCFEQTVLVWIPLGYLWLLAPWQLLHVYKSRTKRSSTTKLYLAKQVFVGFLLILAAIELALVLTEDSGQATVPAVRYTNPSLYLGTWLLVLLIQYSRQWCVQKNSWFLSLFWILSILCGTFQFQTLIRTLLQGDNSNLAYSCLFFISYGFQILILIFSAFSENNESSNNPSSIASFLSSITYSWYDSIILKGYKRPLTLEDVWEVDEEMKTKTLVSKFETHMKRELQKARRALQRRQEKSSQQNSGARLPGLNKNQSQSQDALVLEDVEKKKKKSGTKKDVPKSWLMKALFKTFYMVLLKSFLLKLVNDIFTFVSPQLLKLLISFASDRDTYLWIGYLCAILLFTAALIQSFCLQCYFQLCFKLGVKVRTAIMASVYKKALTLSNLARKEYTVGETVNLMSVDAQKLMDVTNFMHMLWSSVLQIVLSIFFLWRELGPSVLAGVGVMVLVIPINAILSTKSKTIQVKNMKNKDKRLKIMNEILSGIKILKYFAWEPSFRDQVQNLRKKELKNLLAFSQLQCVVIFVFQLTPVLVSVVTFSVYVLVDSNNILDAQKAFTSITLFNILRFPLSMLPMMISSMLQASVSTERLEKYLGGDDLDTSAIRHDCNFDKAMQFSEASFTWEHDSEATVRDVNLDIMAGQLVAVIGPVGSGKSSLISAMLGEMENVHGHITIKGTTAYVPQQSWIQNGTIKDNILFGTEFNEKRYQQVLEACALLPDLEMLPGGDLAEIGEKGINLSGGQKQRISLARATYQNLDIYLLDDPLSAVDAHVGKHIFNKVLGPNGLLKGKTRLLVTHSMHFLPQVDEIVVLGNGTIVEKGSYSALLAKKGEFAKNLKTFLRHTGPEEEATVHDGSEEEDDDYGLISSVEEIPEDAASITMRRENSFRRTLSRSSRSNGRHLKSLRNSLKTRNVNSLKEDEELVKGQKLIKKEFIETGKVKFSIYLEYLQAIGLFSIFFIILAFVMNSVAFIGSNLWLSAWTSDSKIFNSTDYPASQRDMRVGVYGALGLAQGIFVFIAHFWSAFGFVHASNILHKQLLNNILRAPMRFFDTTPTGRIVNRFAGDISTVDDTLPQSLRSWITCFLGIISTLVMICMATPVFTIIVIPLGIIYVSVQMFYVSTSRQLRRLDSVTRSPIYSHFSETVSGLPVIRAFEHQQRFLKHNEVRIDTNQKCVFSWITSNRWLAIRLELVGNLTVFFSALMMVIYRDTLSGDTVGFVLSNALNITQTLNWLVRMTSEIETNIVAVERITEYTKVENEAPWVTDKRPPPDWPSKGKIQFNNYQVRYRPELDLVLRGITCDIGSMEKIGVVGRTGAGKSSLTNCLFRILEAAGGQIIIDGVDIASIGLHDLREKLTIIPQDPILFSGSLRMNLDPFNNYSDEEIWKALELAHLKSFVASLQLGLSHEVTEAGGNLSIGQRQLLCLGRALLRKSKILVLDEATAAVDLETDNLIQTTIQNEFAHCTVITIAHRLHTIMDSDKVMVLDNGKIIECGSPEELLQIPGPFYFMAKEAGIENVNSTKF

Sequence of Bile salt export pump (O95342 whole entry): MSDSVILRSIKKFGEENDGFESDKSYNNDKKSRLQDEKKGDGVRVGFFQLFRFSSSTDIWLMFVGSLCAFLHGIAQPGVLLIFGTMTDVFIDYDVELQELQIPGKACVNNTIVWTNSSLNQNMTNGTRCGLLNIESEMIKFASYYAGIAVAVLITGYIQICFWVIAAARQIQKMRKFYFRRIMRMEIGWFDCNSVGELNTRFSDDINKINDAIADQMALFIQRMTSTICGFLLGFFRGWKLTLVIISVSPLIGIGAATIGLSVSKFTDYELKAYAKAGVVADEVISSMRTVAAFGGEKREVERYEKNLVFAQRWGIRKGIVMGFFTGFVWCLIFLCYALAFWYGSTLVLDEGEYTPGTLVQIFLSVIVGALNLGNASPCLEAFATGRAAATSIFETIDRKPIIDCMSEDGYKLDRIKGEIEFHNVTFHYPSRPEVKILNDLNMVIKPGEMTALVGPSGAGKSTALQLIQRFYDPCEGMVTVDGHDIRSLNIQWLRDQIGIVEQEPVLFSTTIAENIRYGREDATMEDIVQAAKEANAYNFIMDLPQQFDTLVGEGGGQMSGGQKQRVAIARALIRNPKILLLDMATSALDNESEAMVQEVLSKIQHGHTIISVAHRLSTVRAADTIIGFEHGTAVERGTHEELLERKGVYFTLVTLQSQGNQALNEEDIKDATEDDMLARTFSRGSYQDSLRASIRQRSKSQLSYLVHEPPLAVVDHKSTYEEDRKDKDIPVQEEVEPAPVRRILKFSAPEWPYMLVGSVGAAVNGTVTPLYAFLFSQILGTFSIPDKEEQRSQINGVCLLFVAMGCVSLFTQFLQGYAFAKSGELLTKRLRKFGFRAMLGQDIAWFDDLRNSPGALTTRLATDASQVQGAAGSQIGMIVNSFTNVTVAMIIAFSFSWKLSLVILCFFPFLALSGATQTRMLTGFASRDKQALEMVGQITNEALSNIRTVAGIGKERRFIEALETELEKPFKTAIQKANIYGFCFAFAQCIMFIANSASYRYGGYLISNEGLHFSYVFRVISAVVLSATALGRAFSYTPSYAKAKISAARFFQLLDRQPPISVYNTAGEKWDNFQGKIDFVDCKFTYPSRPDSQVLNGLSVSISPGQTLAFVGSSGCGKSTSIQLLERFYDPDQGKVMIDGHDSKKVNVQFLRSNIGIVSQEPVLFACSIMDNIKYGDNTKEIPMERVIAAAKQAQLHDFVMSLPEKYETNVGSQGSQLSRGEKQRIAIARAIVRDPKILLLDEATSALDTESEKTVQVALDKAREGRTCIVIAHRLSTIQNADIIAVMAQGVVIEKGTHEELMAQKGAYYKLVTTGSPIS
Sequence of ATP-binding cassette sub-family C member 3 (O15438 whole entry): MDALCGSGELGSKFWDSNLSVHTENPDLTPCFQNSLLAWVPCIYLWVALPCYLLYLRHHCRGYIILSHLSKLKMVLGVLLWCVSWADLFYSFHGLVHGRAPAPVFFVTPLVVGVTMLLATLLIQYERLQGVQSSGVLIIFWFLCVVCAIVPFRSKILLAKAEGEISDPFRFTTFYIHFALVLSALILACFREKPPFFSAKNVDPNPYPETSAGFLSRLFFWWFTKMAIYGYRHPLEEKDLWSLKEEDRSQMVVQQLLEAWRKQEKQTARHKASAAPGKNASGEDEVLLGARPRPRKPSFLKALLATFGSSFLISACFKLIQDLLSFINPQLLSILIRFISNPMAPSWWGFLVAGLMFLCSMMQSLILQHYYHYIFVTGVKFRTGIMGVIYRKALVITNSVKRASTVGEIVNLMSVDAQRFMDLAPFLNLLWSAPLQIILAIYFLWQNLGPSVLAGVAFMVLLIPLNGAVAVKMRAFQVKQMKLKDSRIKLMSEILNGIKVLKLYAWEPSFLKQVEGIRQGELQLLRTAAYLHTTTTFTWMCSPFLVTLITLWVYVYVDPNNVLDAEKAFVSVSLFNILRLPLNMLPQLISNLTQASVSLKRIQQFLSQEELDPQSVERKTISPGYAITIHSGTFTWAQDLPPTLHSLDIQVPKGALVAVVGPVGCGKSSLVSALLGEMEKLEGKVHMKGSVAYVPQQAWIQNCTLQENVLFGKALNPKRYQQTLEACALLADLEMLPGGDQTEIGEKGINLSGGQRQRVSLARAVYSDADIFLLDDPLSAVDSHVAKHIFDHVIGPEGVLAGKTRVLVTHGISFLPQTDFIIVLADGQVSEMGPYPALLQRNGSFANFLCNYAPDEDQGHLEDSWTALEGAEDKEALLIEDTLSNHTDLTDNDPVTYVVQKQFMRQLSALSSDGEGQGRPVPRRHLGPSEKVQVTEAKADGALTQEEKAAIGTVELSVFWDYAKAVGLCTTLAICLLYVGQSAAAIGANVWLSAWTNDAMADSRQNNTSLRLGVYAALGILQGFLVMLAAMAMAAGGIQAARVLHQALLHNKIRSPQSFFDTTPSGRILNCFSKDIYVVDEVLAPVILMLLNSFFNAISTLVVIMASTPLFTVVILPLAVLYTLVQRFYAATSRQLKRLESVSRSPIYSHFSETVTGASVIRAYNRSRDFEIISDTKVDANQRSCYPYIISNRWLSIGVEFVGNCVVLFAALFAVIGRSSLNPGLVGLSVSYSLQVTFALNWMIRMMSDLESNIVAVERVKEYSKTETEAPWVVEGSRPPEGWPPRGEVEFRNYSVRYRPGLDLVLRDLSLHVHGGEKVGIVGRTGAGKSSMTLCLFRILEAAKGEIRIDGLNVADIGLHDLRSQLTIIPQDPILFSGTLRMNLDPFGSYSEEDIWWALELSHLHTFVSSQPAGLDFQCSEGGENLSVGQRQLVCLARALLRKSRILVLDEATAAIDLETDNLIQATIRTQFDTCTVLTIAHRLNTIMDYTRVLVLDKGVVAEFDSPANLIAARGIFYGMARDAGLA

`COc1ccc2cccc(CCNC(C)=O)c2c1` [AGOMELATINE] showed an IC50 [1] of over 133 µM, an IC50 (Bile salt export pump) of over 133 µM and an IC50 [2] of over 133 µM. For the same compound, the IC50 [3] was over 133 µM.
For `CO/N=C(\C(=O)N[C@@H]1C(=O)N2C(C(=O)O)=C(CSc3nc(=O)c(=O)[nH]n3C)CS[C@H]12)c1csc(N)n1`, the IC50 [1] was 35.6 µM, the IC50 (Bile salt export pump) was over 133 µM and the IC50 [2] was over 133 µM. It also gave an IC50 [3] of over 133 µM.
In the case of `CNS(=O)(=O)Cc1ccc2[nH]cc(CCN(C)C)c2c1`, the IC50 [1] is reported as over 133 µM, the IC50 (Bile salt export pump) is reported as over 133 µM and the IC50 [2] is reported as over 133 µM. For the same compound, the IC50 [3] was over 133 µM.
`C[C@H]1COc2c(C3(N)CC3)c(F)cc3c(=O)c(C(=O)O)cn1c23` [PAZUFLOXACIN] gave an IC50 [1] of over 133 µM, an IC50 (Bile salt export pump) of over 133 µM and an IC50 [2] of over 133 µM. For the same compound, the IC50 [3] was over 133 µM.
`NC1=NC(=O)C(c2ccccc2)O1` (centres undefined) [PEMOLINE] showed an IC50 [1] of over 133 µM, an IC50 (Bile salt export pump) of over 133 µM and an IC50 [2] of over 133 µM. It also gave an IC50 [3] of over 133 µM.
Compound `CC1COc2c(N3CCN(C)CC3)c(F)cc3c(=O)c(C(=O)O)cn1c23` (centres undefined) [OFLOXACIN] has an IC50 [1] of over 133 µM, an IC50 (Bile salt export pump) of over 133 µM and an IC50 [2] of over 133 µM. For the same compound, the IC50 [3] was over 133 µM.
`CNNCc1ccc(C(=O)NC(C)C)cc1` [PROCARBAZINE HYDROCHLORIDE] was tested, and the IC50 [1] was over 133 µM, the IC50 (Bile salt export pump) was over 133 µM and the IC50 [2] was over 133 µM. For the same compound, the IC50 [3] was over 133 µM.
`CN1C(=O)CC(=O)N(c2ccccc2)c2cc(Cl)ccc21` [CLOBAZAM] was tested, and the IC50 [1] was over 133 µM, the IC50 (Bile salt export pump) was over 133 µM and the IC50 [2] was over 133 µM. The IC50 [3] was over 133 µM.
`C=C1C[C@@H]2[C@H](CC[C@]3(C)C(=O)CC[C@@H]23)[C@@]2(C)C=CC(=O)C=C12` [EXEMESTANE] gave an IC50 [1] of over 133 µM, an IC50 (Bile salt export pump) of 90 µM and an IC50 [2] of over 133 µM. For the same compound, the IC50 [3] was over 133 µM.
`CCC1(c2ccccc2)C(=O)NCNC1=O` [PRIMIDONE] showed an IC50 [1] of over 133 µM, an IC50 (Bile salt export pump) of over 133 µM and an IC50 [2] of over 133 µM. It also gave an IC50 [3] of over 133 µM.
For `CC(=O)Oc1ccccc1C(=O)O` [ASPIRIN], the IC50 [1] was over 133 µM, the IC50 (Bile salt export pump) was over 133 µM and the IC50 [2] was over 133 µM. For the same compound, the IC50 [3] was over 133 µM.
With `Clc1ccc2nsnc2c1NC1=NCCN1` [TIZANIDINE] the IC50 [1] was over 133 µM, the IC50 (Bile salt export pump) was over 133 µM and the IC50 [2] was over 133 µM. It also gave an IC50 [3] of over 133 µM.
Work on `COc1cc(NS(C)(=O)=O)ccc1Nc1c2ccccc2nc2ccccc12` [AMSACRINE] yielded an IC50 [1] of 7.43 µM, an IC50 (Bile salt export pump) of over 133 µM and an IC50 [2] of over 133 µM. For the same compound, the IC50 [3] was over 133 µM.
`CC[C@H]1OC(=O)[C@H](C)[C@@H](O[C@H]2C[C@@](C)(OC)[C@@H](O)[C@H](C)O2)[C@H](C)[C@@H](O[C@@H]2O[C@H](C)C[C@H](N(C)C)[C@H]2O)[C@](C)(O)C[C@@H](C)CN(C)[C@H](C)[C@@H](O)[C@]1(C)O` [AZITHROMYCIN] gave an IC50 [1] of over 133 µM, an IC50 (Bile salt export pump) of over 133 µM and an IC50 [2] of over 133 µM. It also gave an IC50 [3] of over 133 µM.
`CCn1cc(C(=O)O)c(=O)c2ccc(C)nc21` [NALIDIXIC ACID] was tested, and the IC50 [1] was 57.5 µM, the IC50 (Bile salt export pump) was over 133 µM and the IC50 [2] was over 133 µM. The IC50 [3] was over 133 µM.
Work on `CC(=O)Nc1ccc(/C=N/NC(N)=S)cc1` [AMITHIOZONE] yielded an IC50 [1] of over 133 µM, an IC50 (Bile salt export pump) of over 133 µM and an IC50 [2] of over 133 µM. It also gave an IC50 [3] of over 133 µM.
enfuvirtide showed an IC50 [1] of 7.5 µM, an IC50 (Bile salt export pump) of over 133 µM and an IC50 [2] of over 133 µM. For the same compound, the IC50 [3] was over 133 µM.
In the case of `C#C[C@]1(O)CC[C@H]2[C@@H]3CCc4cc(O)ccc4[C@H]3CC[C@@]21C` [ETHINYL ESTRADIOL], the IC50 [1] is reported as over 133 µM, the IC50 (Bile salt export pump) is reported as 14 µM and the IC50 [2] is reported as over 133 µM. For the same compound, the IC50 [3] was over 133 µM.
In the case of `Cc1ccc(-c2ncc(Cl)cc2-c2ccc(S(C)(=O)=O)cc2)cn1` [ETORICOXIB], the IC50 [1] is reported as 53 µM, the IC50 (Bile salt export pump) is reported as 53.2 µM and the IC50 [2] is reported as over 133 µM. The IC50 [3] was over 133 µM.
Work on `C[C@@](Cc1ccc(O)c(O)c1)(NN)C(=O)O` [CARBIDOPA ANHYDROUS] yielded an IC50 [1] of over 133 µM, an IC50 (Bile salt export pump) of over 133 µM and an IC50 [2] of over 133 µM. For the same compound, the IC50 [3] was over 133 µM.
`CC[C@H](C)C(=O)O[C@H]1CCC=C2C=C[C@H](C)[C@H](CC[C@@H]3C[C@@H](O)CC(=O)O3)[C@H]21` [MEVASTATIN] was tested, and the IC50 [1] was over 133 µM, the IC50 (Bile salt export pump) was 27 µM and the IC50 [2] was over 133 µM. The IC50 [3] was over 133 µM.
